SMILES strings stand for the structures.

Series [1] deals with thrombocyte aggregation in platelet-rich plasma. Briefly: Determination of effect on platelet aggregation by the method of Born and Cross (collagen-induced thrombocyte aggregation). It is filed as cell-based. Conditions: 10 min, platelet-rich plasma of healthy human donors, 10 min incubation at 37° C., read-out: ED50 (dose leading to a 50% inhibition of aggregation compared with the control group). The method, then: 1. Determination of effect on platelet aggregation by the method of Born and Cross, J. Physiol. 170, 397 (1964):
The thrombocyte aggregation was measured in the platelet-rich plasma of healthy human donors. The course of change of the optical density of the platelet suspension was measured and recorded photometrically after the addition of commercial collagen containing 1 mg of collagen fibrils per ml. From the angle of inclination of the density curve, the rate of aggregation was estimated (Vmax). The optical density (O.D.) was taken as the point on the curve where the most light was transmitted.
As small doses of collagen as possible were chosen, but sufficient to give irreversible aggregation. To provoke maximum aggregation, about 0.01 ml of the collagen solution was added to 1 ml of platelet-rich plasma.
The test compounds were incubated at 37° C. for 10 minutes with the plasma before aggregation was provoked. The compounds were dissolved with a small quantity of hydrochloric acid or dimethyl formamide, and the solution was diluted to the desired final concentration with distilled water.
The dose leading to a 50% inhibition of aggregation compared with the control group (E D50) was determined.

The nature of series [2]: Acute toxicity in white mice after oral application of a single dose. Type of series: in vivo. Conditions: mouse, in vivo, observation time 14 days. The method, then: (§1) The acute toxicity of the compounds was determined in white mice (observation time: 14 days) after oral application of a single dose: […]
In series [3] the test system is white mice. Described as above. It is filed as in vivo. The settings on record: observation time 14 days, at the dose given in the same line. The method, then:
as §1

For `Nc1n[nH]c2nc(N3CCOCC3)cc(-c3ccccc3)c12` [A, 3-Amino-6-morpholino-4-phenyl-1H-pyrazolo[3,4-b]pyridine], the IC50 in series [1] was 1000 nM. For the same compound, the LD50 (in general, the dose at which mortality reaches 50%) at 336 h in series [2] is greater than 250 mg/kg. Moreover, the “animals died (mortality in acute toxicity test)” value (“animals died” below) in series [3] is recorded as 0 out of 10.

Consider `Nc1n[nH]c2nc(N3CCSCC3)cc(-c3ccccc3)c12` [B, 3-Amino-4-phenyl-6-thiomorpholino-1H-pyrazolo[3,4-b]pyridine], for which the IC50 in series [1] came out at 40 nM. Also, the 50% lethal dose (LD50) at 336 h in series [2] was greater than 250 mg/kg. The “animals died” value in series [3] is on record as 0 out of 10.

As for `Nc1n[nH]c2nc(N3CCCCC3)cc(-c3ccccc3)c12` [C, 3-Amino-4-phenyl-6-piperidino-1H-pyrazolo[3,4-b]pyridine], in series [1], the IC50 was 400 nM. Besides, in series [2], the LD50 at 336 h was greater than 250 mg/kg. The “animals died” value in series [3] is reported as 0 out of 10.

Consider `Nc1n[nH]c2nc(N3CCCCCC3)cc(-c3ccccc3)c12` [Compound E, 3-Amino-6-hexamethyleneimino-4-phenyl-1H-pyrazolo[3,4-b]pyridine], for which the IC50 in series [1] came out at 40 nM. In addition, the LD50 at 336 h in series [2] is greater than 5000 mg/kg. In addition, the “animals died” value in series [3] is on record as 3 out of 10.

Consider `CC1CCCN(c2cc(-c3ccccc3)c3c(N)n[nH]c3n2)C1` (stereo not shown) [D, 3-Amino-6-(3-methyl-piperidino)-4-phenyl-1H-pyrazolo[3,4-b]pyridine], for which the IC50 in series [1] came out at 300 nM. The LD50 at 336 h in series [2] is greater than 250 mg/kg. In addition, the “animals died” value in series [3] is recorded as 0 out of 10.

Take `CCN(CC)c1cc(-c2ccccc2)c2c(N)n[nH]c2n1` [F, 3-Amino-6-diethylamino-4-phenyl-1H-pyrazolo[3,4-b]pyridine]: the IC50 in series [1] turned out to be 300 nM. Further, the 50% lethal dose (LD50) at 336 h in series [2] was greater than 1500 mg/kg. Moreover, the “animals died” value in series [3] was 0 out of 10.

On to `COc1ccc(-c2cc(N3CCCCC3)nc3[nH]nc(N)c23)cc1` [G, 3-Amino-4-(4'-methoxy-phenyl)-6-piperidino-1H-pyrazolo [3,4-b]pyridine], for which the IC50 in series [1] is 1000 nM. The LD50 at 336 h in series [2] is greater than 1500 mg/kg. For the same compound, in series [3], the “animals died” value was 0 out of 10.

On to `Nc1n[nH]c2nc(N3CCCCCC3)cc(-c3ccc(F)cc3)c12` [H, 3-Amino-4-(4'-fluoro-phenyl)-6-hexamethyleneimino-1H-pyrazolo[3,4-b]pyridine], for which the IC50 in series [1] came to 300 nM.

Regarding `Nc1cc(-c2ccccc2)c2c(N)n[nH]c2n1` [I, 3,6-Diamino-4-phenyl-1H-pyrazolo[3,4-b]pyridine, reference compound], the IC50 in series [1] was found to be 100000 nM. Further, in series [2], the LD50 at 336 h was greater than 1500 mg/kg. Also, the “animals died” value in series [3] is on record as 0 out of 10.

(Values after patent US4182887A, “3-Amino-4-phenyl-1H-pyrazolo[3,4-b]pyridines and salts thereof” (Boehringer Ingelheim GmbH, priority 1976, dated 1980).)
